This passage reports IC50 and Increase results from ChEMBL document CHEMBL1127101, “Interaction of rigid polyamine analogues with the NMDA receptor complex from rat brain” (Bioorg Med Chem Lett, 1993).

One may read the IC50 as the midpoint of a concentration-inhibition curve.

In assay [1] the target is Glutamate NMDA receptor. Kind of assay: Tested for the binding of [3H]dizocilpine to DEPC (diethylpyrocarbonate) membranes of rat.
Assay [2] addresses Glutamate NMDA receptor. Kind of assay: Tested for the binding of [3H]dizocilpine to NMDA receptor in rat brain membranes in the presence of 500 uM spermidine. It is filed as cell membranes.
Assay [3] in a line: Tested for the increase in [Ca2+] produced by 30 uM of the compound. The format is functional.

SMILES strings stand for the structures.

`Nc1ccc2nc3ccc(N)cc3[n+](-c3ccccc3)c2c1` [PHENOSAFRANINE]: the IC50 was 2.7 µM at Glutamate NMDA receptor [1] and 4.33 µM at Glutamate NMDA receptor [2]. This compound came in with an Increase in assay [3] of 78.4%.

With `Cc1cc2nc3cc(C)c(N)cc3[n+](-c3ccccc3)c2cc1N`, the IC50 at Glutamate NMDA receptor [1] was found to be 3.95 µM; on Glutamate NMDA receptor [2], 2.21 µM. Also, the Increase in assay [3] came out at 77.9%.

For `CC[N+](C)(CC)CCC[n+]1c(-c2ccccc2)c2cc(N)ccc2c2ccc(N)cc21` [PROPIDIUM], the IC50 was 6.8 µM on Glutamate NMDA receptor [1] and > 1000 µM at Glutamate NMDA receptor [2]. Further, in assay [3], the Increase came out at 97.6%.

Regarding `CC[n+]1c(-c2ccccc2)c2cc(N)ccc2c2ccc(N)cc21` [HOMIDIUM BROMIDE], the results for the IC50 on Glutamate NMDA receptor [1] and at Glutamate NMDA receptor [2] were 3.13 µM and 7.34 µM, respectively. The Increase in assay [3] stood at 84.7%.
